Assay results published in US12527862B2, “Bactericidal/permeability increasing protein for use in a method of immunization, preferably as an adjuvant in a method of vaccination” (UNIVERSITÄT REGENSBURG, priority 2018, dated 2026).
Values belong to the molecule of their own block, whether it stands above or below them.

Assays:
BPI [1] = target: T1, BPI (Homo sapiens, UniProt P17213); test: MicroScale Thermophoresis (MST) binding of ligands to BPI; details: 5 nM labeled protein, 25° C. (FIGS. 5A, 5C, 8A, 8B)
T1 construct: aa32-487 of the huBPI respectively aa28-483 of muBPI; HA signal peptide (N); made in house; host or cells: HEK293T
T1 sequence (P17213 32-487): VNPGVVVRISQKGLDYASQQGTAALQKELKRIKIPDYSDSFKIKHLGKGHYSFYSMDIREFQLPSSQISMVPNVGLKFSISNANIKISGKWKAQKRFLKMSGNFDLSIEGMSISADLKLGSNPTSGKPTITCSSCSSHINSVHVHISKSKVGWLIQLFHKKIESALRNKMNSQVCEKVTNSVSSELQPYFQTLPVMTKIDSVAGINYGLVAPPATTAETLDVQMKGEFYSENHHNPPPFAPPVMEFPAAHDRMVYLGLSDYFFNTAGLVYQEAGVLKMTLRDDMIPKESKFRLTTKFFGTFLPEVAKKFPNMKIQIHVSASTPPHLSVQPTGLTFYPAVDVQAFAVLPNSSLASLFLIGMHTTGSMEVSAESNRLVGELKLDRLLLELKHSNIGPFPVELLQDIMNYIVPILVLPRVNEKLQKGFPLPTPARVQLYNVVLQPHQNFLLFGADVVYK
Experimental: (§1) BPIN (A) and rBPI were labeled with NT647 in PBS pH 7.4 (Monolith NT™ Protein Labeling Kit RED-NHS, NanoTemper Technologies, Munich, Germany). Concentration of labeled protein was determined using the NanoDrop (ThermoScientific, Wilmington, NC, USA) and Bradford assay (Promega, Mannheim, Germany). MST binding experiments were carried out with 5 nM labeled protein in binding buffer (10 mM HEPES pH 7.4, 150 mM NaCl, 0.1% Tween) with 0.196-6,436 nM of Pam3CSK4 (bLP), or 0.61-20,000 nM of LTA SPΔlgt (LTA), or >0.61-20,000 nM WTA SPΔlgt (WTA) at 20%-40% MST power, 20% LED power in premium capillaries on a Monolith NT.115 pico device at 25° C. (NanoTemper Technologies, Munich, Germany). Pam3CSK4, (bLP) was obtained from EMC Microcollections GmbH (Tübingen, Germany), LTA and WTA were prepared as published previously. MST timetraces were recorded, and the temperature jump and thermophoresis or thermophoresis was analyzed. Binding graphs of each independent experiment were normalized to the fraction bound.
(§2) MST was performed as described for example 5. PiLAM and PiLM were ordered from Invivogen (San Diego, CA, USA). BPI binding assays were performed by incubating Streptavidin-coated 96-well plates (Nunc™ Immobilizer™ Streptavidin F96 clear, Thermo Fisher Scientific, Waltham, MA, USA) with LPS biotin (2 μg/ml) in PBS overnight at 23° C. with gentle agitation. After washing with assay buffer (150 mM NaCl, 50 mM HEPES, Sigma Aldrich, Taufkirchen, Germany) containing 0.01% Casein, plates were blocked with 10 g/l BSA (Sigma Aldrich, Taufkirchen, Germany) at 37° C. and washed again. Thereafter, ligands were preincubated with 20 nM BPI in assay buffer containing 1 g/l BSA for 30 min and loaded onto the plates. Bound BPI was detected by murine anti-human BPI monoclonal antibody (Cat.-No. HM2042, Hycult Biotech, Uden, Netherlands) and HRP-conjugated rabbit anti-mouse IgG (Cat.-No. 315-035-048, Dianova, Hamburg, Germany). […] After addition of 1 N HCl, absorbance was measured at 450 nm. Absorbance indicates binding, the higher the absorbance the higher the binding of BPI to the coated well. […]

BPI [2] = target: T1, BPI; test: BPI binding assay on Streptavidin-coated plates (biotinylated LPS or ODN 1826), direct and competitive
Experimental: FIG. 7 depicts the binding of BPI to TLR ligands. […] Competition of binding was assessed for different variants of CpG ODNs ([…]) and the TLR3 agonist Poly(I:C) in ODN 1826 coated plates.
Streptavidin-coated plates were incubated with biotinylated LPS (n=3). Competition of binding was assessed for lipoarabinomannan as exemplified for phosphatidyl-inositol lipoarabinomannan (PiLAM).
MST was performed as described for example 5. PiLAM and PiLM were ordered from Invivogen (San Diego, CA, USA). BPI binding assays were performed by incubating Streptavidin-coated 96-well plates (Nunc™ Immobilizer™ Streptavidin F96 clear, Thermo Fisher Scientific, Waltham, MA, USA) with LPS biotin (2 μg/ml) in PBS overnight at 23° C. with gentle agitation. After washing with assay buffer (150 mM NaCl, 50 mM HEPES, Sigma Aldrich, Taufkirchen, Germany) containing 0.01% Casein, plates were blocked with 10 g/l BSA (Sigma Aldrich, Taufkirchen, Germany) at 37° C. and washed again. Thereafter, ligands were preincubated with 20 nM BPI in assay buffer containing 1 g/l BSA for 30 min and loaded onto the plates. Bound BPI was detected by murine anti-human BPI monoclonal antibody (Cat.-No. HM2042, Hycult Biotech, Uden, Netherlands) and HRP-conjugated rabbit anti-mouse IgG (Cat.-No. 315-035-048, Dianova, Hamburg, Germany). TMB (BD OptEIA™ TMB Substrate Reagent Set, BD Biosciences, Heidelberg, Germany) was used as a substrate for peroxidase. After addition of 1 N HCl, absorbance was measured at 450 nm. Absorbance indicates binding, the higher the absorbance the higher the binding of BPI to the coated well. Preincubation with a BPI ligand inhibits binding in a concentration-dependent manner.

BMDCs = test: Cytokine protein secretion by BMDCs (Luminex); assay type: cell-based, C57BL/6J mice; details: Zymd 5 μg/ml, bLP 10 nM; Luminex, n>7, 4h (FIG. 3)
Experimental: All methods mentioned in this example were carried out as described in the preceding examples. Cells were stimulated with Zymosan depleted (Zymd, 5 μg/ml) from Invivogen (San Diego, CA, USA) or (R)-Pam3CSK4 (bLP, 10 nM) from EMC Microcollections GmbH (Tübingen, Germany). Protein secretion analysis was performed using the supernatants.
To quantify the interleukin and chemokine protein-level after stimulation with huBPI, Zymd, and (R)-Pam CSK4, a multiplex-system was used and determined by using the Luminex® technology (Austin, TX, USA). The cytokines were captured with anti-mouse capture-antibodies and detected by biotinylated antibodies specific for the respective protein (Table 3). Protein concentrations were calculated using a reconstituted standard curve of the analyzed proteins (SM039, #LMC4031, Lot #1438354; Thermo Fisher Scientific; Standard Mix 1a, #EPX010-20603-901, Lot #111709101, eBioscience).

BPI [3] = test: MicroScale Thermophoresis (MST) binding of ligands to BPI; parameters: species or system human; details: MST, 0.196-6,436 nM Pam3CSK4 (FIG. 5A)
Experimental: as §1, §2

[4] = tested on: bone-marrow derived dendritic cells; test: Microarray gene expression analysis in BMDCs; assay type: cell-based, C57BL/6J mice; details: 200 nM huBPI or muBPI, 4 h, microarray (FIG. 2A)
Experimental: All methods mentioned in this example were carried out as described in Example 1. BMDCs were seeded into a tissue-culture-treated 96-well plate in VLE-RPMI 1640 media (10% FCS, 10% Penicillin-Streptomycin, 50 μM β-Mercaptoethanol) and stimulated with 200 nM huBPI or muBPI. 4 h after stimulation, gene expression analysis was performed by microarray analysis (Affymetrix Mouse Gene 2.0 ST, FIGS. 2A and 2B).

Molecule: phosphatidyl-inositol lipomannan [PiLM]
binding to BPI (MST) (BPI [1]): Binding of phosphatidyl-inositol lipomannan (PiLM) to BPI is shown

competition of BPI binding in ODN 1826 coated plates (BPI [2]; biotinylated ODN 1826, n=3 (FIG. 7B)): competitive binding was present
Molecule: polyinosinic: polycytidylic acid [Poly(I:C)]

binding to BPI (MST) (BPI [1]): shown to bind to bLPs
Affinity of BPI to bLP (BPI [3]): within a nanomolar range
Molecule: (R)-Pam3CSK4 [bLP]
stimulatory effect on the expression of IL-6 (IL-6 level), BPI vs Zymd vs bLP (BMDCs): similar

Molecule: ODN 1826
binding of BPI to plate-bound biotinylated ligand (BPI [2]; Streptavidin-coated plates, absorbance 450 nm, n=4 (FIG. 7A)): Binding of BPI to both LPS and CpG ODN was observed

Molecule: phosphatidyl-inositol lipoarabinomannan [PiLAM]
competition of BPI binding in biotinylated LPS coated plates (BPI [2]; LPS biotin 2 μg/ml, 20 nM BPI, n=3 (FIG. 8C)): binding is conserved

B1: murine BPI: recombinant murine BPI, aa28-483 of muBPI, expressed in HEK293T cells (protein, listed as Mus musculus)
chain: TDPGFVAMISQKGLDFACQQGVVELQKELQAISVPDFSGVFKIKHLGKGSYEFYSMAVDGFHIPNPKIEMLPSDGLRVFIKDASIKINGKWMSRKNFLKAGGNFELSIQGVSISTDLILGSDSSGHITTICSNCDSHIDSVHIKISGSMLGWLIRLFHRKIETSLKNIIYKKICKIVRDSVSSKLQPYLKTLSVITRVDDVTSVDYSLLAPLTTTNQFLEGQLKGEFFWRGHRDPLPIHPPVMRFVPNGAYMVCMGISDYFFNTEVLAYQQSGTLKMTLGGQLLSNNGRFQLNTDFLRTFLPKVAKMFPSMGVQLLISAPVPVHLSIQPSGLSFNPKLETQAFVVLPNASLVPLFVLGMKTNASLEVDAEENRLVGEMKLGSRWLLELKESKFGPFKVEYLEDVINYLVSTLVLPKINERLRRGFPLPLPAGIRFSHFTFYPYQNFLLLEADLHLI
immunostimulatory effect on BMDCs (gene expression) [4]: shows an immunostimulatory effect on BMDCs
